Laboratory results taken from US12295992B2, “Use of ALDH1A and agonist, catalyst and inhibitor thereof” (SHANGHAI INSTITUTES FOR BIOLOGICAL SCIENCES, CHINESE …, priority 2017, dated 2025).

How the values were obtained:
wild-type C57BL/6 mice [1] = assay: Open field experiment in wild-type mice; type: in vivo
Description: (§1) Four-week-aged mice were given a low dose (0.1 mg/g) or a high dose (0.3 mg/g) of DSF (Sigma, dissolved in olive oil) every two days for 6 weeks. The control group was only given the solvent olive oil (Aladdin). The body weight of the mice was weighed weekly. After 6 weeks of gastric administration, the test of mouse behavior was started. The brains of the control and DSF mice were dissected and taken. After freezing with liquid nitrogen, the brain tissue was homogenized, and ATRA was quantified by the HPLC-MS/MS method as described hereinafter.
Mice were randomized into groups and placed in an open field instrument (Med Associates) for 30 minutes. The Ethovision automatic recording software (Noldus) was used to record the time spent by the mouse in the central region (⅓ to ⅔ of length on each side of the region) and to calculate the ratio of the distance walked in the central region to the total distance.

[2] = system: mice overexpressing UBE3A; assay: Rotating rod experiment in mice overexpressing UBE3A; type: in vivo; settings: oral ATRA 3 mg/kg
Description: Three-week-aged mice were anesthetized with intraperitoneal injection of pentobarbital (50 mg/kg) and fixed on a locator (Rivend, China). 1 μL of PBS-diluted AAV virus was injected at a rate of 0.2 μL/min on both sides of the PFC region in the mouse brain using a syringe pump (Stoelting). The position of the site injection (relative to the front fontanel): AP, +2 mm; ML, ±0.5 mm; DV, −1.3 mm. The amount of virus injected per injection site was: AAV-SynI-Flag-UBE3A and its mutant T508E, 3×10^9; and AAV-SynI-Flag-EGFP, 1.5×10^9. The needle was held in place for another 3 minutes to prevent virus reflux. The mice were placed on a 37° C. electric blanket until they recovered completely from the anesthesia. 1-2 days after surgery, mice were intraperitoneally injected with 0.5 mg/ml meloxicam (Sigma, 2 mg/kg) to help the mice to relieve pain. Four weeks after surgery, mice were tested for behavior. […]
After mice were randomized into groups, the motor coordination ability of the mice was recorded using a Rotamex rotarod instrument (Columnbus Instruments). […] The time before the test mice dropped off the rod was automatically recorded by an infrared detection system, and the results of the last test were finally compared.

wild-type C57BL/6 mice [3] = assay: Rotating rod experiment in wild-type mice; type: in vivo
Description: as §1
After mice were randomized into groups, the motor coordination ability of the mice was recorded using a Rotamex rotarod instrument (Columnbus Instruments). On the same day, the test mice were tested 3 times, each experiment was lasted 5 minutes, and the rotating rod was accelerated from 4 revolutions […]. There were at least 30 minutes between two experiments. The time before the test mice dropped off the rod was automatically recorded by an infrared detection system, and the results of the last test were finally compared.

wild-type C57BL/6 mice [4] = assay: Three-chamber social experiment in wild-type mice; type: in vivo
Description: Four-week-aged mice were given a low dose (0.1 mg/g) or a high dose (0.3 mg/g) of DSF (Sigma, dissolved in olive oil) every two days for 6 weeks. The control group was only given the solvent olive oil (Aladdin). The body weight of the mice was weighed weekly. After 6 weeks of gastric administration, the test of mouse behavior was started. The brains of the control and DSF mice were dissected and taken. After freezing with liquid nitrogen, the brain tissue was homogenized, and ATRA was quantified by the HPLC-MS/MS method as described hereinafter. A three-chamber social experiment was performed according to previously reported procedures (Sztainberg et al., 2015). Briefly, a transparent acrylic box for social experiment was divided into three chambers of uniform size with removable gates mounted on the partition board. An inverted iron mesh cup was placed in each of the left and right chambers. Two days before the experiment, C57BL/6 mice, which were from different family and whose age was matched with the test mice, were placed in two cups as strange mice for 1 hour each day for accommodation. Test mice were randomized into groups and accommodated to the test chamber for 1 hour before the test started. Each test mouse was placed in the center chamber for 10 minutes for self-exploration, and the chamber door was closed. In the first stage, a strange mouse was randomly placed in the left or right cup (avoiding positional bias), and the inanimate article was placed in the cup on the other side. […] In the second stage, the test mice were kept in the chamber of the strange mouse for 5 minutes, and then another strange mouse was placed in the cup in which the article was previously placed.

[5] = system: mice overexpressing UBE3A; assay: Self-grooming experiment in mice overexpressing UBE3A (AAV in PFC); type: in vivo; settings: oral ATRA 3 mg/kg, four weeks, compared to oral solvent group
Description: To further verify whether UBE3A overactivation triggered the autism phenotype in mice due to injury in the RA production process, mice injected with UBE3A-bearing AAV virus in PFC were orally administered with oral solvents (olive oil) or ATRA (3 mg/kg), administered five consecutive days per week for a total of four weeks.

[6] = system: mice overexpressing UBE3A; assay: Open field experiment in mice overexpressing UBE3A; type: in vivo; settings: oral ATRA 3 mg/kg, vs solvent group
Description: Three-week-aged mice were anesthetized with intraperitoneal injection of pentobarbital (50 mg/kg) and fixed on a locator (Rivend, China). 1 μL of PBS-diluted AAV virus was injected at a rate of 0.2 μL/min on both sides of the PFC region in the mouse brain using a syringe pump (Stoelting). The position of the site injection (relative to the front fontanel): AP, +2 mm; ML, ±0.5 mm; DV, −1.3 mm. The amount of virus injected per injection site was: AAV-SynI-Flag-UBE3A and its mutant T508E, 3×10^9; and AAV-SynI-Flag-EGFP, 1.5×10^9. The needle was held in place for another 3 minutes to prevent virus reflux. The mice were placed on a 37° C. electric blanket until they recovered completely from the anesthesia. 1-2 days after surgery, mice were intraperitoneally injected with 0.5 mg/ml meloxicam (Sigma, 2 mg/kg) to help the mice to relieve pain. Four weeks after surgery, mice were tested for behavior. In the ATRA compensation experiment, one week after the injection of AAV-SynI-Flag-UBE3A virus, mice were orally administered with ATRA (Sigma, dissolved in olive oil, 3 mg/kg) or olive oil for five consecutive days. Behavioral testing was performed 4 weeks after administration.
Mice were randomized into groups and placed in an open field instrument (Med Associates) for 30 minutes. […]

[7] = system: mice overexpressing UBE3A; assay: Three-chamber social experiment in mice overexpressing UBE3A; type: in vivo; settings: oral ATRA 3 mg/kg
Description: Three-week-aged mice were anesthetized with intraperitoneal injection of pentobarbital (50 mg/kg) and fixed on a locator (Rivend, China). 1 μL of PBS-diluted AAV virus was injected at a rate of 0.2 μL/min on both sides of the PFC region in the mouse brain using a syringe pump (Stoelting). The position of the site injection (relative to the front fontanel): AP, +2 mm; ML, ±0.5 mm; DV, −1.3 mm. […] The needle was held in place for another 3 minutes to prevent virus reflux. The mice were placed on a 37° C. electric blanket until they recovered completely from the anesthesia. 1-2 days after surgery, mice were intraperitoneally injected with 0.5 mg/ml meloxicam (Sigma, 2 mg/kg) to help the mice to relieve pain. Four weeks after surgery, mice were tested for behavior. […] Behavioral testing was performed 4 weeks after administration.
A three-chamber social experiment was performed according to previously reported procedures (Sztainberg et al., 2015). Briefly, a transparent acrylic box for social experiment was divided into three chambers of uniform size with removable gates mounted on the partition board. An inverted iron mesh cup was placed in each of the left and right chambers. Two days before the experiment, C57BL/6 mice, which were from different family and whose age was matched with the test mice, were placed in two cups as strange mice for 1 hour each day for accommodation. Test mice were randomized into groups and accommodated to the test chamber for 1 hour before the test started. Each test mouse was placed in the center chamber for 10 minutes for self-exploration, and the chamber door was closed. In the first stage, a strange mouse was randomly placed in the left or right cup (avoiding positional bias), and the inanimate article was placed in the cup on the other side. Each test mouse was explored for 10 minutes in the open three-chambers, and the communication time between the test mice and the strange mice or the articles was manually recorded. In the second stage, the test mice were kept in the chamber of the strange mouse for 5 minutes, and then another strange mouse was placed in the cup in which the article was previously placed. The test mice were further explored for 10 minutes, and the communication time between the test mice and the familiar animals or the new animals was manually recorded.
To further verify whether UBE3A overactivation triggered the autism phenotype in mice due to injury in the RA production process, mice injected with UBE3A-bearing AAV virus in PFC were orally administered with oral solvents (olive oil) or ATRA (3 mg/kg), administered five consecutive days per week for a total of four weeks. Then the mice were subjected to behavioral experiments (FIG. 8a).

wild-type C57BL/6 mice [8] = assay: Self-grooming experiment in wild-type mice; type: in vivo; settings: for time of self-grooming: six weeks, within 10 minutes
Description: as §1, with “hereinafter. The mice used in the self-grooming experiment were placed in a cage box filled with a filler having a thickness of about 0.5-1 cm for 10 minutes in advance for accommodation. Then, within 10 minutes, the time of self-grooming in mice was recorded by a double-blind experimenter through a stopwatch.” for “hereinafter.”

[9] = system: ATRA synthesis in the mouse brain; assay: HPLC-MS/MS quantification of ATRA in mouse brain tissue; type: in vivo, mice; settings: six weeks
Description: Four-week-aged mice were given a low dose (0.1 mg/g) or a high dose (0.3 mg/g) of DSF (Sigma, dissolved in olive oil) every two days for 6 weeks. The control group was only given the solvent olive oil (Aladdin). The body weight of the mice was weighed weekly. After 6 weeks of gastric administration, the test of mouse behavior was started. The brains of the control and DSF mice were dissected and taken. After freezing with liquid nitrogen, the brain tissue was homogenized, and ATRA was quantified by the HPLC-MS/MS method as described hereinafter. Sample preparation, retinoid extraction and subsequent HPLC-MS/MS analysis were performed according to the previously reported procedures (Kane et al., 2010). The frozen brains of mice were homogenized on ice with 2 mL of 0.9% saline under red light condition. 13-cis-retinoic acid-d5 (20 ng/mL, TRC) was added into the tissue homogenate as an internal reference. […] The samples were analyzed by HPLC on a 2.1×100 mm Supelcosil ABZ+PLUS column (3 urn, Sigma) column. […] The instrumentation was an AB Sciex 4000 QTRAP LC-MS/MS system, and the ATRA component was quantified in the APCI cation mode, and the ATRA content in each sample was corrected using a standard ATRA curve.

[10] = Body weight of mice during DSF administration; type: in vivo; settings: DSF 0.1 or 0.3 mg/g, weighed weekly, six weeks
Description: as §1

wild-type C57BL/6 mice [11] = assay: Elevated cross maze experiment in wild-type mice; type: in vivo; settings: DSF 0.1 or 0.3 mg/g vs solvent
Description: as §1
Mice were placed in a closed arm of an elevated cross maze (Med Associates) and recording was started for 5 minutes. Image recording was performed using a camera hanged in the air, and the number of times that the mouse entered into the open arm and the closed arm within 5 minutes was recorded and analyzed using ANY-maze software (Stoelting).

[12] = wild-type mice, oral ATRA, same administration

Question: For CC1=C(/C=C/C(C)=C/C=C/C(C)=C/C(=O)O)C(C)(C)CCC1 [ATRA, all-trans retinoic acid], which “open field experiment, solvent vs ATRA” value (wild-type C57BL/6 mice [1]; [12]) is on record?
Answer: Its value is “did not cause any differences”.

Question: What about the “sport ability (rotating rod)” value [2] of the same compound?
Answer: The value was “did not affect the sport ability”.

Question: What about the “rotating rod experiment, solvent vs ATRA” value (wild-type C57BL/6 mice [3]; [12]) of the same compound?
Answer: Its value is “did not cause any differences”.

Question: What about the “three-chamber social interaction experiment, solvent vs ATRA” value (wild-type C57BL/6 mice [4]; [12]) of the same compound?
Answer: The value was “did not cause any differences”.

Question: What about the “time spent on self-grooming behavior” value [5] of the same compound?
Answer: The value was “significantly reduced”.

Question: And the “distance walked in open field” value [6]?
Answer: Its value is “walked more distance”.

Question: And the “time in the middle of the open field” value [6]?
Answer: Its value is “less time”.

Question: And the “cognitive deficits in social novelty” value [7]?
Answer: The value was “alleviated”.

Question: What about the “time interacting with social animals vs non-social articles” value [7] of the same compound?
Answer: Its value is “nearly twice as much time”.

Question: And the “time spent with strange mice vs familiar mice” value [7]?
Answer: Its value is “twice”.

Question: And the social barriers ([7]; compared with solvent group)?
Answer: The social barriers was “completely reversed”.

Question: What about the “self-grooming experiment, solvent vs ATRA” value (wild-type C57BL/6 mice [8]; [12]) of the same compound?
Answer: The value was “did not cause any differences”.

Question: With CCN(CC)C(=S)SSC(=S)N(CC)CC [DSF, disulfiram] as the compound, how does the “distance of the movement in the open field” value (wild-type C57BL/6 mice [1]; DSF 0.1 or 0.3 mg/g vs solvent) read?
Answer: Its value is “no difference”.

Question: What about the “time staying in the middle area of the open field” value (wild-type C57BL/6 mice [1]; DSF 0.1 or 0.3 mg/g vs solvent) of the same compound?
Answer: Its value is “no difference”.

Question: What about the “sport ability (rotating rod)” value (wild-type C57BL/6 mice [3]; DSF 0.1 or 0.3 mg/g) of the same compound?
Answer: Its value is “did not affect the sport ability”.

Question: What about the “increase of time spent in the chamber of familiar social mouse vs solvent group” value (wild-type C57BL/6 mice [4]; DSF 0.3 mg/g) of the same compound?
Answer: The value was 50%.

Question: What about the “reduction of time staying in the chamber of strange social mouse vs solvent group” value (wild-type C57BL/6 mice [4]; DSF 0.3 mg/g) of the same compound?
Answer: The value was 30%.

Question: And the “decrease of ATRA level in brain tissue vs solvent group” value ([9]; DSF 0.1 mg/g oral every other day)?
Answer: Its value is 30%.

Question: What about the “decrease of ATRA level in brain tissue vs solvent group” value ([9]; DSF 0.3 mg/g oral every other day) of the same compound?
Answer: Its value is 60%.

Question: What about the “body weight between the groups” value [10] of the same compound?
Answer: The value was “no significant difference”.

Question: And the “number of times entering the open arm as a percentage of all arm entry” value (wild-type C57BL/6 mice [11])?
Answer: The value was “no significant difference”.

Question: And the time of self-grooming (wild-type C57BL/6 mice [8]; DSF 0.1 mg/g)?
Answer: Its time of self-grooming is 30 s.

Question: And the time of self-grooming (wild-type C57BL/6 mice [8]; DSF 0.3 mg/g)?
Answer: Its time of self-grooming is 42 s.
